Here are results for 80 compounds from the METLIN SMRT retention time set (Domingo-Almenara et al. 2019).

This series in a line: gradient 5% acetonitrile 3 min, to 50% in 2 min, to 85% in 15 min, held 3 min, 100 µL/min. Particulars: column: Zorbax Extend-C18 2.1 x 50 mm; eluents: water / acetonitrile, 0.1% formic acid. In a few lines:
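Values are retention times taken from adduct peaks that software picked and an analyst inspected. The pure standards were run as mixtures of ~100 molecules on HPLC linked to a quadrupole time-of-flight mass spectrometer, in positive and negative ionization mode. A Zorbax Extend-C18 column (2.1 × 50 mm, 1.8 μm) was used at 100 μL/min with water and acetonitrile, each including 0.1% formic acid.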
Take `CCCN1C(=O)c2cc(S(=O)(=O)Nc3ccc(F)cc3C)ccc2Oc2cccnc21`: the RP-LC retention time came out at 1100 s.

The compound `CCn1cnc(S(=O)(=O)N2CCCC(C(=O)NCc3ccc(Cl)cc3)C2)c1` (stereo not given) showed an RP-LC retention time of 756 s.

Turning to `CC(C)CCNC(=O)C1CCN(c2nc3ccc(-c4cncnc4)nc3s2)CC1`, the RP-LC retention time worked out at 824 s.

As for `CCc1nc2cc(N3CCCC(C(=O)NC(C)c4cccnc4)C3)cnc2nc1CC` (stereo not given), the RP-LC retention time turned out to be 606 s.

Take `Cc1cc(C)cc(OCc2nc(CCN(C)C(=O)COc3ccccc3)no2)c1`: the RP-LC retention time is 1030 s.

Compound `CCOc1ccc(CC(=O)N2CCc3cc(-c4csc(C)n4)ccc32)cc1` came in with an RP-LC retention time of 1060 s.

With `O=C(Nc1cccc(Cl)c1)C1CCCN(C(=O)c2cc(-c3ccccn3)n[nH]2)C1` (stereo not given), the RP-LC retention time was found to be 740 s.

Turning to `CCOC(=O)c1noc2ncnc(Nc3cc(C)cc(C)c3)c12`, the RP-LC retention time is 1060 s.

For `Cc1ccnc(N2CCC(C(=O)NCCSCc3ccco3)CC2)n1`, the RP-LC retention time was 680 s.

Take `COc1ccc(-c2ccc3c(N4CCOC[C@@H]4C)nc(N4CCOC[C@@H]4C)nc3n2)cc1CO`: the RP-LC retention time turned out to be 698 s.

As to `O=C(COc1ccc(F)cc1)Nc1nc(CN2CCc3ccccc3C2)cs1`, the RP-LC retention time was found to be 608 s.

`CC(C)C(=O)Nc1ccc(C(=O)NCCNS(=O)(=O)N(C)C)cc1` yielded an RP-LC retention time of 631 s.

`Cc1[nH]c(C(=O)N2CCCC(C(=O)NC(C)C)C2)c(C)c1C(=O)OC(C)C` (stereo not given) came in with an RP-LC retention time of 770 s.

`O=C(NCc1ccccc1)c1cc2sccc2n1Cc1ccc(Cl)cc1` came in with an RP-LC retention time of 1170 s.

In turn, `Cc1nc(C)n(CC(=O)Nc2ccc(F)cc2)c(=O)c1C` gave an RP-LC retention time of 630 s.

The compound `O=S(=O)(c1ccccc1Br)N1CCC(c2noc(-c3ccccc3)n2)CC1` gave an RP-LC retention time of 1160 s.

On to `CCCn1cc(S(=O)(=O)Nc2ccccc2OC)c2cccnc21`, for which the RP-LC retention time turned out to be 904 s.

In the case of `Cc1cc(Br)ccc1NC(=O)Cn1cnc2nc3c(cc2c1=O)CCCC3`, the RP-LC retention time was found to be 777 s.

With `COc1ccc2[nH]c(=O)c(CCC(=O)N(C)CCc3ccncc3)cc2c1`, the RP-LC retention time is 589 s.

With `Cc1ccc(NC(=O)NCC2CCOCC2)cc1C`, the RP-LC retention time worked out at 726 s.

`CCc1noc(NC(C)=O)c1-c1ccc(OC)c(S(=O)(=O)Nc2cccc(OC)c2)c1` registered an RP-LC retention time of 754 s.

For the compound `CCN1CCCn2cc(S(=O)(=O)Nc3cc(OC)cc(OC)c3)cc2C1=O`, the RP-LC retention time was 704 s.

Compound `CCCOc1ccc(Nc2nc(C(=O)OCC)nc3ccccc23)cc1` registered an RP-LC retention time of 941 s.

Consider `CCC(C(=O)NCCOc1ccc2nnc(-c3ccc(OC)cc3)n2n1)c1ccccc1` (stereo not given), for which the RP-LC retention time is 735 s.

As to `Cc1cc(NC(=O)C2CCN(C(=O)c3nc4ccccc4s3)CC2)no1`, the RP-LC retention time came out at 746 s.

`Fc1cc(F)cc(-c2nnc(Cc3nc(-c4ccc(Cl)cc4)no3)o2)c1` returned an RP-LC retention time of 1130 s.

Turning to `Cc1cccc(-c2nc(C3CCN(S(=O)(=O)c4ccc(F)cc4)CC3)no2)c1`, the RP-LC retention time was determined as 1110 s.

`CCc1ccc(OCc2nc(CCN(C)C(=O)Nc3cc(OC)ccc3OC)no2)cc1` registered an RP-LC retention time of 1060 s.

`O=C(OCCN1CCCCC1)c1c[nH]c2ccccc12` yielded an RP-LC retention time of 666 s.

The compound `Cc1cc(=O)oc2c(C)c(OCC(O)CN3CCC(C(N)=O)CC3)ccc12` (stereo not given) gave an RP-LC retention time of 579 s.

With `CNC(=O)C1CCCN(c2nc3ncn(CC(=O)Nc4ccc5c(c4)OCCO5)c(=O)c3s2)C1` (stereo not given), the RP-LC retention time amounted to 627 s.

As for `Cn1c(C(=O)NCc2ccccc2)cc2ccncc21`, the RP-LC retention time worked out at 604 s.

The compound `COc1ccc(C(=O)N2CCc3ccc(C(=O)Nc4ccc5c(c4)OCO5)cc32)cc1` had an RP-LC retention time of 773 s.

In turn, `Cc1cc(=O)n(CC(=O)N(C)c2ccccc2)c(N2CCCC2)n1` returned an RP-LC retention time of 625 s.

The compound `Cc1nc2cc3c(cc2n1CC(=O)NCCOc1ccc(Cl)cc1)OCCO3` registered an RP-LC retention time of 674 s.

As to `Cc1ccc(S(=O)(=O)N2CCC(CN3CCCCCC3)CC2)cc1F`, the RP-LC retention time worked out at 686 s.

Take `CN(CC(=O)NCc1ccncc1)c1nc2c(Cl)cccc2s1`: the RP-LC retention time turned out to be 564 s.

On to `COc1ccc(NC(=O)Cn2c(N3CCOCC3)nc(C)cc2=O)cc1`, for which the RP-LC retention time was 609 s.

The compound `Cc1cccc(NC(=O)N2CCN(c3cc(C)nc(N4CCCC4)n3)CC2)c1` had an RP-LC retention time of 680 s.

In the case of `COc1cc(NS(=O)(=O)c2c(C)sc(C)c2-c2cc(C(F)(F)F)on2)cc(OC)c1`, the RP-LC retention time was 1140 s.

In the case of `Cc1oc2ncn(CC(=O)N3CCC(C(N)=O)CC3)c(=O)c2c1C`, the RP-LC retention time was 613 s.

As for `CC(C)Cn1cc(CCNS(=O)(=O)c2ccc(Br)s2)c2cccnc21`, the RP-LC retention time stood at 995 s.

For `COc1ccccc1CNC(=O)C1CCCN1S(=O)(=O)c1cc2c(cc1C)NC(=O)CO2` (stereo not given), the RP-LC retention time turned out to be 764 s.

Compound `Cc1ccc(NC(=O)N2CCC(N(C(=O)C3CC3)C3CCOCC3)CC2)c(C)c1` came in with an RP-LC retention time of 722 s.

For the compound `CC1CCN(C(=O)C2=CN(c3ccccc3)c3ccccc3S2(=O)=O)CC1`, the RP-LC retention time is 919 s.

In the case of `Cc1cnc(CCNC(=O)NCC(C)C)n1C1CCCCCC1`, the RP-LC retention time turned out to be 588 s.

As for `CN1c2cc(F)ccc2C(=O)NC12CCN(C(=O)c1cc(F)cc(F)c1)CC2`, the RP-LC retention time was found to be 793 s.

In turn, `O=C(Nc1ccccc1)C1CCCN(c2nnc3ccc(Cl)cn23)C1` (stereo not given) had an RP-LC retention time of 753 s.

`O=C(NCCC1CCN(S(=O)(=O)c2ccc(F)cc2)CC1)Nc1ccc(F)cc1F` displayed an RP-LC retention time of 935 s.

Consider `CCc1ccc(OCC(=O)N(Cc2ccc(N(C)C)cc2)C2CCS(=O)(=O)C2)cc1` (stereo not given), for which the RP-LC retention time was 792 s.

For the compound `Cc1nn(C)cc1C(=O)Nc1c(C)n(C)n(-c2ccccc2)c1=O`, the RP-LC retention time is 563 s.

Consider `CN(CC1CCOCC1)C(=O)Nc1cccc(C(F)(F)F)c1`, for which the RP-LC retention time stood at 816 s.

Compound `O=C(NCCCc1ccccc1)C1CCN(C(=O)c2ncn3c2COC(c2ccc(F)cc2)C3)CC1` (stereo not given) had an RP-LC retention time of 818 s.

In the case of `O=C(Nc1sc2c(c1C(c1cccnc1)N1CCN(c3ccccn3)CC1)CCCC2)c1ccco1` (stereo not given), the RP-LC retention time was found to be 676 s.

As for `COc1cccc(-n2c(N3CCCC(C(=O)NCCC(C)C)C3)nc3ccsc3c2=O)c1` (stereo not given), the RP-LC retention time turned out to be 872 s.

`CC(C)NC(=O)N(C1CC1)C1CCOC2(CCN(C(=O)C3(c4ccccc4)CC3)CC2)C1` (stereo not given) displayed an RP-LC retention time of 865 s.

For `O=C(Nc1ccc(C2(C(=O)NCC3CCCO3)CC2)cc1)c1cccs1` (stereo not given), the RP-LC retention time amounted to 753 s.

As to `CCOC(=O)CNC(=O)N1CCN(Cc2nc3cc(C)ccc3o2)CC1`, the RP-LC retention time worked out at 616 s.

With `CCNC(=O)C1CCCN(c2nc3ncn(CC(=O)Nc4ccc(C)c(C)c4)c(=O)c3s2)C1` (stereo not given), the RP-LC retention time came to 711 s.

Consider `CCCNC(=O)N(Cc1c(C)nn(-c2ccccc2)c1Oc1ccccc1OC)CC1CCCO1` (stereo not given), for which the RP-LC retention time was determined as 917 s.

In turn, `CN1CCn2cc(S(=O)(=O)Nc3cccc(Cl)c3)cc2C1=O` returned an RP-LC retention time of 709 s.

In turn, `CCc1noc2cc(-c3ccccc3)n(C)c(=O)c12` gave an RP-LC retention time of 950 s.

`CC(C)CCNC(=O)CCC(=O)N1CC2CCCN2c2ccccc21` (stereo not given) returned an RP-LC retention time of 902 s.

For the compound `Cc1cc(C(F)F)n2nc(C(=O)Nc3ccc(C)c(C)c3)nc2n1`, the RP-LC retention time amounted to 860 s.

Consider `CC(=O)N1CCC(C(=O)Nc2nc(C(C)(C)C)cs2)CC1`, for which the RP-LC retention time was 731 s.

Compound `CC12COC3(C(=O)Nc4ccc(F)cc4)CC1CCC32C` (stereo not given) had an RP-LC retention time of 1030 s.

Compound `O=C(NCCc1nc2cccnc2n1-c1ccccc1)c1ccsc1` yielded an RP-LC retention time of 674 s.

In turn, `Cc1cccc(NC(=O)C2CC(=O)N(c3n[nH]c4cccc(F)c34)C2)c1C` (stereo not given) yielded an RP-LC retention time of 770 s.

The compound `Cc1sc2ccn(C)c(=O)c2c1C(=O)NCc1ccccc1Cl` came in with an RP-LC retention time of 798 s.

`CC(C)NC(=O)N(C1CC1)C1CCOC2(CCN(C(=O)Cc3ccsc3)CC2)C1` (stereo not given) registered an RP-LC retention time of 770 s.

For the compound `CCS(=O)(=O)N1CC(c2nc(-c3ccc(F)cc3)no2)C2(CCOCC2)C1` (stereo not given), the RP-LC retention time amounted to 877 s.

In turn, `Cn1c(C(=O)Nc2ccc(F)cc2F)cc2c(=O)oc3ccccc3c21` had an RP-LC retention time of 923 s.

With `Cc1cc2nn(CC(=O)NC3CCCCC3)c(=O)n2c(Nc2ccc(F)cc2)n1`, the RP-LC retention time stood at 909 s.

In the case of `Cc1nc(-c2csc(S(=O)(=O)N3CCCC(C(=O)Nc4ccc(C#N)cc4)C3)c2)no1` (stereo not given), the RP-LC retention time stood at 935 s.

`Cc1ccc(CN2CCN(CC(C)C(=O)NCc3cc(F)ccc3F)C(=O)C2=O)cc1` (stereo not given): the RP-LC retention time was 765 s.

Consider `Cc1ccc(CS(=O)(=O)N2CCC(c3cc(N)on3)CC2)cc1C`, for which the RP-LC retention time amounted to 826 s.

On to `CC(=O)NC(CC(C)C)C(=O)NC(Cc1ccccc1)C(=O)CCl` (stereo not given), for which the RP-LC retention time was determined as 750 s.

`CCN1C(=O)c2ccccc2Oc2ccc(C(=O)NCc3ccccc3)cc21` returned an RP-LC retention time of 912 s.

In turn, `Cc1ccc2c(Nc3ccc4c(c3)OCCO4)c(C(=O)N3CCC(C)CC3)cnc2n1` registered an RP-LC retention time of 649 s.

The compound `COc1ccc(-c2noc(Cc3nnc(-c4cc(C)cc(C)c4)o3)n2)cc1OC` gave an RP-LC retention time of 997 s.
